From patent US10322129B2, “Therapeutic compositions containing dipyridamole, treatment packs and kits including such compositions and methods for producing same” (O.D. Ocular Discovery Ltd., priority 2015, dated 2019)
In brackets after ≈: the same amount, converted by molar mass.

How the values were obtained:
[1] = dissolution in aqueous solution by adjusting the pH; format: physicochemical; details: pH of the aqueous solution adjusted to ~6.6 (6.5-6.7) or less
Text: The natural pH of tear fluid is 7.4; however, discomfort for the user will not be felt as long as the pH of the administered medication stays in the range of 6.6-7.8 (Sampath Kumar et al., “Recent Challenges and Advances in Ophthalmic Drug Delivery System,” in The Pharma Innovation, Vol. 1, No. 4 (2012)). Others administer eye drops at a pH of 5.5 and find this pH to be optimal.

[2] = cited from earlier work
[3] = cited from earlier work; remark: listed apart in the source

## OCCN(CCO)c1nc(N2CCCCC2)c2nc(N(CCO)CCO)nc(N3CCCCC3)c2n1 [Dipyridamole, dipyridamole]
[1]
  dissolution in the aqueous solution: fully dissolves
[2]
  solubility in methanol: very soluble
[3]; Meylan, W M ET AL. (1996)
  water solubility: 8.17 mg/L (≈ 16.2 µM)
[3]; water
  solubility in water: practically insoluble
